Like-named read-outs stand apart in the source and are kept apart here.
How the values were obtained:
[1] = system: clinical isolates of C. krusei; test: potentiation of fluconazole vs. clinical isolates of C. krusei; assay type: cell-based; conditions: Pichia kudriavzevii
[2] = system: clinical isolates of C. parapsilosis; test: potentiation of fluconazole vs. clinical isolates of C. parapsilosis; assay type: cell-based; conditions: Lodderomyces parapsilosis
[3] = system: clinical isolates of C. tropicalis; test: potentiation of fluconazole vs. clinical isolates of C. tropicalis; assay type: cell-based; conditions: for MIC50 / MIC90: Candida tropicalis
A. fumigatus = test: potentiation of Posaconazole vs. A. fumigatus; assay type: cell-based, Aspergillus fumigatus; conditions: 15 strains
[4] = fluconazole MIC with FEPI at 16-32 μg/ml, C. krusei clinical isolates, read-out: MIC50 Flu + FEPI
[5] = fluconazole MIC with FEPI at 16-32 μg/ml, C. krusei clinical isolates, read-out: MIC90 Flu + FEPI
[6] = fluconazole MIC with FEPI at 16-32 μg/ml, read-out: MIC50 Flu + FEPI
[7] = fluconazole MIC with FEPI at 16-32 μg/ml, read-out: MIC90 Flu + FEPI
[8] = fluconazole MIC with FEPI at 16-32 μg/ml, C. tropicalis clinical isolates, read-out: MIC90 Flu + FEPI

Compound | MIC90 ([1]; read-out: MIC90 Flu only) [µg/mL] | MIC50 ([1]; fluconazole alone, C. krusei clinical isolates, read-out: MIC50 Flu only) [µg/mL] | MIC50 ([2]; fluconazole alone, read-out: MIC50 Flu only) [µg/mL] | MIC90 ([2]; fluconazole alone, read-out: MIC90 Flu only) [µg/mL] | MIC50 ([3]; read-out: MIC50 Flu only) [µg/mL] | MIC90 ([3]; read-out: MIC90 Flu only) [µg/mL] | MIC50 Flu only ([3]; listed as Flu) [µg/mL] | MIC50 [1, 4] [µg/mL] | MIC90 [1, 5] [µg/mL] | MIC50 [2, 6] [µg/mL] | MIC90 [2, 7] [µg/mL] | MIC50 ([3]; fluconazole MIC with FEPI at 16-32 μg/ml, C. tropicalis clinical isolates, read-out: MIC50 Flu + FEPI) [µg/mL] | MIC90 [3, 8] [µg/mL] | MPC8 (A. fumigatus; concentration of efflux pump inhibitor to reduce MIC of Posaconazole 8-fold) [µg/mL] | MIC (A. fumigatus; Aspergillus fumigatus, footnote: minimum inhibitor concentration of Posaconazole alone to achieve 80% inhibition) [µg/mL] | MIC50 ([3]; fluconazole MIC with FEPI at 16-32 μg/ml, […], read-out: MIC50 Flu + FEPI) [µg/mL]
OC(Cn1cncn1)(Cn1cncn1)c1ccc(F)cc1F [fluconazole, reference compound] | > 128 | 64 | 1 | 4 | > 128 | > 128 | 128 | – | – | – | – | – | – | – | – | –
COc1ccc(N(C(=O)Nc2cccc(Cl)c2)C(C)c2nc3ccccc3c(=O)n2N2CCN(CCO)CC2)c(OC)c1 (stereo not drawn) [Compound 3, 3-(3-Chloro-phenyl)-1-(2,4-dimethoxy-phenyl)-1-(1-{3-[4-(2-hydroxy-ethyl)-piperazin-1-yl]-4-oxo-3,4-dihydro-quinazolin-2-yl}-ethyl)-urea] | – | – | – | – | – | – | – | > 32 | > 32 | < 0.03 | 0.5 | 0.25 | 8 | – | – | –
COc1ccc(N(C(=O)Nc2cccc(Cl)c2)C(C)c2nc3ccccc3c(=O)n2N2CCN(C)CC2)c(OC)c1 (stereo not drawn) [Compound 1, 3-(3-Chloro-phenyl)-1-(2,4-dimethoxy-phenyl)-1-{1-[3-(4-methyl-piperazin-1-yl)-4-oxo-3,4-dihydro-quinazolin-2-yl]-ethyl}-urea] | – | – | – | – | – | – | – | 32 | > 32 | < 0.03 | 0.25 | – | 2 | 8 to 32 | > 32 | 0.125

— patent publication US6596723B1, “Fungal efflux pump inhibitors” (Essential Therapeutics, Inc., priority 2001, dated 2003)
